# Measurements reported in patent US5366982A (priority 1990, dated 1994).
# Biological target: leukotriene B4 receptors (Cavia porcellus, UniProt H0VYV8)
# Assay: biochemical
# Assay type: binding, guinea-pig
# Details: for IC50: Table XIX, guinea-pig spleen membranes, tritium-labelled LTB4, read-out: IC50 Binding (Cheng); for inhibition at 10 µM: read-out: Binding (Cheng) % Inhibition at 10 μM
# Sequence of leukotriene B4 receptors (H0VYV8 1-348): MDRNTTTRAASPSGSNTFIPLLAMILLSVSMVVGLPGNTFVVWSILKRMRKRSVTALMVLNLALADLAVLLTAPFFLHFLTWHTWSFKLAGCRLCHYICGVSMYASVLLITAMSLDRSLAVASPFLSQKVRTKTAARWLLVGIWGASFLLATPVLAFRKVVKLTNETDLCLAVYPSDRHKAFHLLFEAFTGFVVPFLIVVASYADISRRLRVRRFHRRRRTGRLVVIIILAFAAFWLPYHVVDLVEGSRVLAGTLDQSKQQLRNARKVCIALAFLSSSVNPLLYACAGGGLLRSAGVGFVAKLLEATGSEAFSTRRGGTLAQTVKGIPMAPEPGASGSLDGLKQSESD
Compound,IC50,inhibition at 10 µM
O=C(O)COCCCOc1cc(-c2ccccc2)cc(-c2ccccc2)n1,100 nM,
O=C(O)CCCCCCCSc1nc(-c2ccccc2)c2ccccc2n1,9000 nM,
O=C(O)CCCCCCCSc1ncc(-c2ccccc2)c(-c2ccccc2)n1,3000 nM,
O=C(O)CCCCCCCOc1ccc(-c2ccccc2)c(-c2ccccc2)n1,10000 nM,
O=C(O)CCCCCCCOc1cccc(-c2ccccc2)n1,6000 nM,
6-[(6-cyclopropyl-5-phenyl-2-pyridyl)oxy]hexanoic acid,40 nM,
O=C(CCCCCOc1cc(-c2ccccc2)c2ccccc2n1)N1CCCC1 [1-[6-(4-phenyl-2-quinolyloxy)hexanoyl]pyrrolidine],,12%
"CC(C)(CCCCOc1cc(-c2ccccc2)c2ccccc2n1)C(=O)O [2,2-dimethyl-6-[(4-phenyl-2-quinolyl)oxy]hexanoic acid]",150 nM,
"CC(C)(CCCCSc1cc(-c2ccccc2)c2ccccc2n1)C(=O)O [2,2-dimethyl-6-[(4-phenyl-2-quinolyl)thio]hexanoic acid]",,33%
"CC(C)(CCCCOc1cc(-c2ccccc2)c2cc(Cl)ccc2n1)C(=O)O [2,2-dimethyl-6-[(6-chloro-4-phenyl-2-quinolyl)oxy}hexanoic acid]",2500 nM,
"Cc1ccc2c(-c3ccccc3)cc(OCCCCC(C)(C)C(=O)O)nc2c1 [2,2-dimethyl-6-[(7-methyl-4-phenyl-2-quinolyl)oxy]hexanoic acid]",2000 nM,
"CC(C)(CCCCOc1cc(-c2cccs2)c2ccccc2n1)C(=O)O [2,2-dimethyl-6-{[4-(2-thienyl)-2-quinolyl]oxy}hexanoic acid]",200 nM,
"CC(C)(CCCCOc1cc(-c2ccc(Cl)c(Cl)c2)c2ccccc2n1)C(=O)O [2,2-dimethyl-6-{[4-(3,4-dichlorophenyl)-2-quinolyl]oxy}hexanoic acid]",3500 nM,
"CC(C)(CCCCOc1cc(-c2cccc(Cl)c2)c2ccccc2n1)C(=O)O [2,2-dimethyl-6-{[4-(3-chlorophenyl)-2-quinolyl]oxy}hexanoic acid]",1100 nM,
"COc1cccc(-c2cc(OCCCCC(C)(C)C(=O)O)nc3ccccc23)c1 [2,2-dimethyl-6-{[4-(3-methoxyphenyl)-2-quinolyl]oxy}hexanoic acid]",300 nM,
"Cc1cccc(-c2cc(OCCCCC(C)(C)C(=O)O)nc3ccccc23)c1 [2,2-dimethyl-6-{[4-(3-tolyl)-2-quinolyl]oxy}hexanoic acid]",3500 nM,

Compound,IC50,inhibition at 10 µM
"CC(C)(CCCCOc1cc(-c2ccc(N)cc2)c2ccccc2n1)C(=O)O [2,2-dimethyl-6-{[4-(4-aminophenyl)-2-quinolyl]oxy}hexanoic acid]",40 nM,
"CC(C)(CCCCOc1cc(-c2ccc(Cl)cc2)c2ccccc2n1)C(=O)O [2,2-dimethyl-6-{[4-(4-chlorophenyl)-2-quinolyl]oxy}hexanoic acid]",15 nM,
"CC(C)(CCCCOc1cc(-c2ccc(Cl)cc2)cc(-c2ccccc2)n1)C(=O)O [2,2-dimethyl-6-{[4-(4-chlorophenyl)-6-phenyl-2-pyridyl]oxy}hexanoic acid]",100 nM,
"CN(C)c1ccc(-c2cc(OCCCCC(C)(C)C(=O)O)nc3ccccc23)cc1 [2,2-dimethyl-6-{[4-(4-dimethylaminophenyl)-2-quinolyl]oxy}hexanoic acid]",30 nM,
"CC(C)(CCCCOc1cc(-c2ccc(F)cc2)c2ccccc2n1)C(=O)O [2,2-dimethyl-6-{[4-(4-fluorophenyl-2-quinolyl]oxy}hexanoic acid]",150 nM,
"CC(C)(CCCCOc1cc(-c2ccc([N+](=O)[O-])cc2)c2ccccc2n1)C(=O)O [2,2-dimethyl-6-{[4-(4-nitrophenyl)-2-quinolyl]oxy}hexanoic acid]",150 nM,
"Cc1ccc(-c2cc(OCCCCC(C)(C)C(=O)O)nc3ccccc23)cc1 [2,2-dimethyl-6-{[4-(4-tolyl)-2-quinolyl]oxy}hexanoic acid]",30 nM,
"CC(C)(CCCCOc1cc(-c2ccc(C(F)(F)F)cc2)c2ccccc2n1)C(=O)O [2,2-dimethyl-6-{[4-(4-trifluoromethylphenyl)-2-quinolyl]oxy}hexanoic acid]",300 nM,
"CC(C)(CCCCCCSc1ncc(-c2ccccc2)c(-c2ccccc2)n1)C(=O)O [2,2-dimethyl-8-(4,5-diphenyl-2-pyrimidylthio)octanoic acid]",2500 nM,
"CC(C)(CCCCCCOc1cc(-c2ccccc2)cc(-c2ccccc2)n1)C(=O)O [2,2-dimethyl-8-[(4,6-diphenyl-2-pyridyl)oxy]octanoic acid]",22 nM,
CCC(C)(CCCCOc1cc(-c2ccccc2)c2ccccc2n1)C(=O)O (stereo not shown) [2-ethyl-2-methyl-6-[(4-phenyl-2-quinolyl)oxy]hexanoic acid],110 nM,
CCC(CCCCOc1cc(-c2ccc(Cl)cc2)c2ccccc2n1)C(=O)O (stereo not shown) [2-ethyl-6-{[4-(4-chlorophenyl)-2-quinolyl]oxy}hexanoic acid],200 nM,
CC(CCCCOc1cc(-c2ccccc2)c2ccccc2n1)C(=O)O (stereo not shown) [2-methyl-6-[(4-phenyl-2-quinolyl)oxy]hexanoic acid],550 nM,
CC(CCCCOc1cc(-c2ccc(Cl)cc2)c2ccccc2n1)C(=O)O (stereo not shown) [2-methyl-6-{[4-(4-chlorophenyl)-2-quinolyl]oxy}hexanoic acid],30 nM,
COc1ccc(-c2cc(OCCCCC(C)C(=O)O)nc3ccccc23)cc1 (stereo not shown) [2-methyl-6-{[4-(4-methoxyphenyl)-2-quinolyl]oxy}hexanoic acid],16 nM,
"O=C(CCCOc1cc(-c2ccccc2)cc(-c2ccccc2)n1)Nc1ccccc1 [4-[(4,6-diphenyl-2-pyridyl)oxy]butanilide]",> 1000 nM,

# Second part, the compound after the results:
IC50,inhibition at 10 µM,Compound
300 nM,,"O=C(O)CCCOc1cc(-c2ccccc2)cc(-c2ccccc2)n1 [4-[(4,6-diphenyl-2-pyridyl)oxy]butanoic acid]"
400 nM,,"CC(C)(CCCCOc1cc(-c2ccccc2)c2ccccc2n1)c1nnn[nH]1 [5-{1,1-dimethyl-5-[(4-phenyl-2-quinolyl)oxy]pentyl}-[1H]-tetrazole]"
30 nM,,"CC(C)(CCCCOc1cc(-c2ccc(Cl)cc2)c2ccccc2n1)c1nnn[nH]1 [5-{1,1-dimethyl-5-{[4-(4-chlorophenyl)-2-quinolyl]oxy}pentyl}-[1H]-tetrazole]"
500 nM,,c1ccc(-c2cc(OCCCCCc3nnn[nH]3)nc3ccccc23)cc1 [5-{5-[(4-phenyl-2-quinolyl)oxy]pentyl}-[1H]-tetrazole]
25 nM,,Clc1ccc(-c2cc(OCCCCCc3nnn[nH]3)nc3ccccc23)cc1 [5-{5-{[4-(4-chlorophenyl)-2-quinolyl]oxy}pentyl}-[1H]-tetrazole]
2 nM,,"c1ccc(-c2cc(-c3ccc4c(c3)OCO4)cc(OCCCCCc3nnn[nH]3)n2)cc1 [5-{5-{[6-phenyl-4-(3,4-methylenedioxyphenyl)-2-pyridyl]oxy}pentyl}-1H-tetrazole]"
8 nM,,"O=C(O)CCCCCOc1cc(-c2ccccc2)cc(-c2ccccc2)c1 [6-(3,5-diphenyl-phenoxy)hexanoic acid]"
,35%,"O=C(O)CCCCCOc1ncc(-c2ccccc2)c(-c2ccccc2)n1 [6-(4,5-diphenyl-2-pyrimidyloxy)hexanoic acid]"
8000 nM,,"O=C(O)CCCCCSc1ncc(-c2ccccc2)c(-c2ccccc2)n1 [6-(4,5-diphenyl-2-pyrimidylthio)hexanoic acid]"
,48%,"O=C(O)CCCCCOc1ncc(-c2ccc(Cl)cc2)c(-c2ccc(Cl)cc2)n1 [6-[4,5-bis-(4-chlorophenyl)-2-pyrimidyloxy]hexanoic acid]"
8000 nM,,"COc1ccc(-c2cnc(OCCCCCC(=O)O)nc2-c2ccc(OC)cc2)cc1 [6-[4,5-bis-(4-methoxyphenyl)-2-pyrimidyloxy]hexanoic acid]"
150 nM,,"O=C(O)CCCCCOc1nc(-c2ccccc2)cc(-c2ccccc2)n1 [6-[(4,6-diphenyl-2-pyrimidyl)oxy]hexanoic acid]"
900 nM,,O=C(O)CCCCCOc1cc(-c2ccccc2)ccn1 [6-[(4-phenyl-2-pyridyl)oxy]hexanoic acid]
700 nM,,O=C(O)CCCCCOc1cc(-c2ccccc2)c2ccccc2n1 [6-[(4-phenyl-2-quinolyl)oxy]hexanoic acid]
10000 nM,,"CC(C)(CCCCOc1ccc(-c2ccccc2)c(-c2ccccc2)n1)C(=O)O [6-[(5,6-diphenyl-2-pyridyl)oxy]-2,2-dimethylhexanoic acid]"
,15%,"O=C(O)CCCCCOc1ccc(-c2ccccc2)c(-c2ccccc2)n1 [6-[(5,6-diphenyl-2-pyridyl)oxy]hexanoic acid]"
,30%,COc1ccc2nc(OCCCCCC(=O)O)cc(-c3ccccc3)c2c1 [6-[(6-methoxy-4-phenyl-2-quinolyl)oxy]hexanoic acid]
10 nM,,"Cc1cc(-c2ccccc2)cc(OCCCCC(C)(C)C(=O)O)n1 [6-[(6-methyl-4-phenyl-2-pyridyl)oxy]-2,2-dimethylhexanoic acid]"
200 nM,,Cc1cc(-c2ccccc2)cc(OCCCCCC(=O)O)n1 [6-[(6-methyl-4-phenyl-2-pyridyl)oxy]hexanoic acid]
5000 nM,,"Cc1ccc2nc(OCCCCC(C)(C)C(=O)O)cc(-c3ccccc3)c2c1 [6-[(6-methyl-4-phenyl-2-quinolyl)oxy]-2,2-dimethylhexanoic acid]"
2000 nM,,"CC(C)(CCCCOc1cccc(-c2ccccc2)n1)C(=O)O [6-[(6-phenyl-2-pyridyl)oxy]-2,2-dimethylhexanoic acid]"
1200 nM,,"O=C(O)CCCCCOc1cc(-c2ccc(Cl)cc2)cc(-c2ccc(Cl)cc2)n1 [6-{[4,6-di(4-chlorophenyl)-2-pyridyl]oxy}hexanoic acid]"
3000 nM,,"COc1ccc(-c2cc(OCCCCCC(=O)O)nc(-c3ccc(OC)cc3)c2)cc1 [6-{[4,6-di(4-methoxyphenyl)-2-pyridyl]oxy}hexanoic acid]"
200 nM,,O=C(O)CCCCCOc1cc(-c2ccccc2Cl)cc(-c2ccccc2)n1 [6-{[4-(2-chlorophenyl)-6-phenyl-2-pyridyl]oxy}hexanoic acid]
,36%,"COc1ccccc1-c1cc(OCCCCC(C)(C)C(=O)O)nc2ccccc12 [6-{[4-(2-methoxyphenyl)-2-quinolyl]oxy}-2,2-dimethylhexanoic acid]"
500 nM,,"O=C(O)CCCCCOc1cc(-c2cc(Cl)cc(Cl)c2)cc(-c2ccccc2)n1 [6-{[4-(3,5-dichlorophenyl)-6-phenyl-2-pyridyl]oxy}hexanoic acid]"
